Test results as given in patent US6150385A, “1,3,4-thiadiazoles useful for the treatment of CMV infections” (Pharmacia & Upjohn Company, priority 1999, dated 2000).

Target: T1, HCMV polymerase (Human cytomegalovirus, UniProt P08546)
T1 construct: made in house; host or cells: SF-9 insect cells infected with recombinant baculovirus
Assay: HCMV polymerase assay (scintillation proximity assay)
Assay type: biochemical
Conditions: percentage of inhibition at 25 μM concentration in CMV polymerase assay
Outline: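 Baculovirus/SF-9-expressed HCMV polymerase in 5.4 mM HEPES pH 7.5, 11.7 mM KCl, 4.5 mM MgCl2, 0.36 mg/ml BSA, 90 nM 3H-dTTP, with or without 2 mM CHAPS. Started with 6 nM biotinylated poly(dA)-oligo(dT), 30 min at 25 or 37 °C, EDTA-stopped, read by streptavidin-SPA counting; % inhibition at 25 μM.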

T1 sequence (P08546 whole entry): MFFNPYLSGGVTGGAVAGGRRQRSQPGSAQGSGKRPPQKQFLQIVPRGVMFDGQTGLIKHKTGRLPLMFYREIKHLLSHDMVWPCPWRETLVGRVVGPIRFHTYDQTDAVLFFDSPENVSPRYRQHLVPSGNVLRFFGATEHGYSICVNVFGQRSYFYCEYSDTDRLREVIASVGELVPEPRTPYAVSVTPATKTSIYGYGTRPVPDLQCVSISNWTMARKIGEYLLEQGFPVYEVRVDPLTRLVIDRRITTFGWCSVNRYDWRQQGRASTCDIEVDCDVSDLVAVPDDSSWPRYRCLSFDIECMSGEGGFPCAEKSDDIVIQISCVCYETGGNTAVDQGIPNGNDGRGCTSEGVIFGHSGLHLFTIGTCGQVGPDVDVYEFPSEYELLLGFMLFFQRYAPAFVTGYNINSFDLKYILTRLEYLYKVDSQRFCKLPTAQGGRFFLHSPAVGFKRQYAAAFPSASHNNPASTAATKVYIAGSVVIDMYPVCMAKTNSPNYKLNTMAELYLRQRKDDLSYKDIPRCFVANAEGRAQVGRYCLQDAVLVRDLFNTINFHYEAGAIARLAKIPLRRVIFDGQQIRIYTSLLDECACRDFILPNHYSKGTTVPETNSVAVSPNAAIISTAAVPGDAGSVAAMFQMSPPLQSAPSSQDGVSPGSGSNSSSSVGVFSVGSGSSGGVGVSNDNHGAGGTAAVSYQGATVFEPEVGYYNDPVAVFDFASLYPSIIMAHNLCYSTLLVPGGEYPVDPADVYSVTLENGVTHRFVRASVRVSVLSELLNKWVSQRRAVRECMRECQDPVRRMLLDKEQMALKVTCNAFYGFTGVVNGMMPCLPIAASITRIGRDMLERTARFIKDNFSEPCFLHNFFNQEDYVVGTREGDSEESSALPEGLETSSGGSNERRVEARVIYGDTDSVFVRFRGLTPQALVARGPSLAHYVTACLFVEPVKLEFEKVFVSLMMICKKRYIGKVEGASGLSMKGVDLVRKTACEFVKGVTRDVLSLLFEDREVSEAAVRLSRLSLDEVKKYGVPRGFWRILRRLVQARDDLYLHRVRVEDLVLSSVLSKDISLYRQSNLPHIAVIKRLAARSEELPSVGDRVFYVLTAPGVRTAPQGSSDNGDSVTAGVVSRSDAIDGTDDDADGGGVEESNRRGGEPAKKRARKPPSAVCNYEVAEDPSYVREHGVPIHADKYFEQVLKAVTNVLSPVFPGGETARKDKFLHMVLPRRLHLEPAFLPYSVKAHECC

| inhibition at 25 µM [%] | SMILES | % Inhib [%] |
| --- | --- | --- |
| 20 | N#Cc1ccc(C(=O)Nc2nnc(NCc3ccc4c(c3)OCO4)s2)cc1 [compound 471, N-{5-[(1,3-benzodioxol-5-ylmethyl)amino]-1,3,4-thiadiazol-2-yl}-4-cyanobenzamide] | – |
| 28.1 | O=C(Nc1nnc(NCCCCc2ccccc2)s1)c1cc(F)cc(F)c1 [compound 373, 3,5-difluoro-N-{5-[(4-phenylbutyl)amino]-1,3,4-thiadiazol-2-yl}benzamide] | – |
| 23 | O=C(/C=C/c1ccccc1)Nc1nnc(NCCN2CCCC2)s1 [compound 432, (E)-3-phenyl-N-(5-{[2-(1-pyrrolidinyl)ethyl]amino}-1,3,4-thiadiazol-2-yl)-2-propenamide] | – |
| 21.9 | CC(C)c1cc(C(C)C)c(C(=O)Nc2nnc(NCCN(C)C)s2)c(C(C)C)c1 [compound 444, N-(5-{[2-(dimethylamino)ethyl]amino}-1,3,4-thiadiazol-2-yl)-2,4,6-triisopropylbenzamide] | – |
| 38.7 | O=C(/C=C/c1ccccc1Cl)Nc1nnc(NCCc2c[nH]c3ccccc23)s1 [compound 268, (E)-3-(2-chlorophenyl)-N-(5-{[2-(1H-indol-3-yl)ethyl]amino}-1,3,4-thiadiazol-2-yl)-2-propenamide] | – |
| 26.6 | CC(C)c1cc(C(C)C)c(C(=O)Nc2nnc(NCCC(=O)OC(C)(C)C)s2)c(C(C)C)c1 [compound 388, tert-butyl 3-({5-[(2,4,6-triisopropylbenzoyl)amino]-1,3,4-thiadiazol-2-yl}amino)propanoate] | – |
| 39.4 | O=C(Nc1nnc(NCc2ccncc2)s1)c1ccc(Cl)c(Cl)c1 [compound 263, 3,4-chloro-N-{5-[(4-pyridinylmethyl)amino]-1,3,4-thiadiazol-2-yl}benzamide] | – |
| 26.1 | Cc1ccc(C(=O)Nc2nnc(NCCNc3ccccc3)s2)cc1 [compound 393, N-{5-[(2-anilinoethyl)amino]-1,3,4-thiadiazol-2-yl}-4-methylbenzamide] | – |
| 31.6 | CC(C)(C)OC(=O)CCNc1nnc(NC(=O)c2c(Cl)cccc2Cl)s1 [compound 338, tert-butyl 3-({5-[(2,6-dichlorobenzoyl)amino]-1,3,4-thiadiazol-2-yl}amino)propanoate] | – |
| 31.5 | O=C(Nc1nnc(NCCNc2ccccc2)s1)c1ccc(I)cc1 [compound 339, N-{5-[(2-anilinoethyl)amino]-1,3,4-thiadiazol-2-yl}-4-iodobenzamide] | – |
| 41.3 | O=C(/C=C/c1ccccc1Cl)Nc1nnc(NCCC(c2ccccc2)c2ccccc2)s1 [compound 240, (E)-3-(2-chlorophenyl)-N-{5-[(3,3-diphenylpropyl)amino]-1,3,4-thiadiazol-2-yl}-2-propenamide] | – |
| 26 | COc1ccccc1C(=O)Nc1nnc(NCCNc2ccccc2)s1 [compound 394, N-{5-[(2-anilinoethyl)amino]-1,3,4-thiadiazol-2-yl}-2-methoxybenzamide] | – |
| 31.8 | COc1ccccc1C(=O)Nc1nnc(NCc2cccc3ccccc23)s1 [compound 334, 2-methoxy-N-{5-[(1-naphthylmethyl)amino]-1,3,4-thiadiazol-2-yl}benzamide] | – |
| 38.2 | O=C(Nc1nnc(NCCCn2ccnc2)s1)c1ccc(Br)cc1 [compound 272, 4-bromo-N-(5-{[3-(1H-imidazol-1-yl)propyl]amino}-1,3,4-thiadiazol-2-yl)benzamide] | – |
| 20.8 | O=C(Nc1nnc(NC2CCN(Cc3ccccc3)CC2)s1)c1ccc(Br)cc1 [compound 455, N-{5-[(1-benzyl-4-piperidinyl)amino]-1,3,4-thiadiazol-2-yl}-4-bromobenzamide] | – |
| 25.2 | O=C(Nc1nnc(NC2CCc3ccccc32)s1)c1ccc([N+](=O)[O-])o1 (stereo not shown) [compound 404, N-[5-(2,3-dihydro-1H-inden-1-ylamino)-1,3,4-thiadiazol-2-yl]-5-nitro-2-furamide] | – |
| 38.4 | CCOc1ccc2ccccc2c1C(=O)Nc1nnc(NCCc2ccccc2)s1 [compound 270, 2-ethoxy-N-[5-(phenethylamino)-1,3,4-thiadiazol-2-yl]-1-naphthamide] | – |
| 22.5 | O=C(/C=C/c1ccccc1Cl)Nc1nnc(NCC2CCCCC2)s1 [compound 439, (E)-3-(2-chlorophenyl)-N-{5-[(cyclohexylmethyl)amino]-1,3,4-thiadiazol-2-yl}-2-propenamide] | – |
| 34.7 | COc1ccccc1C(=O)Nc1nnc(NCCc2c[nH]c3ccccc23)s1 [compound 303, N-(5-{[2-(1H-indol-3-yl)ethyl]amino}-1,3,4-thiadiazol-2-yl)-2-methoxybenzamide] | – |
| 26.9 | O=C(Nc1nnc(NCCC(c2ccccc2)c2ccccc2)s1)c1ccc(Br)cc1 [compound 386, 4-bromo-N-{5-[(3,3-diphenylpropyl)amino]-1,3,4-thiadiazol-2-yl}benzamide] | – |
| 27.4 | CC(C)c1cc(C(C)C)c(C(=O)Nc2nnc(NCCCN3CCCC3=O)s2)c(C(C)C)c1 [compound 381, 2,4,6-triisopropyl-N-(5-{[3-(2-oxo-1-pyrrolidinyl)propyl]amino}-1,3,4-thiadiazol-2-yl)benzamide] | – |

Second part, the compound before the results:

| SMILES | inhibition at 25 µM [%] | % Inhib [%] |
| --- | --- | --- |
| O=C(Nc1nnc(NCCNc2ccccc2)s1)c1ccc(S(=O)(=O)F)cc1 [compound 204, 4-[({5-[(2-anilinoethyl)amino]-1,3,4-thiadiazol-2-yl}amino)carbonyl]benzenesulfonyl fluoride] | – | 45.0 |
| O=C(Nc1nnc(NC2CCN(Cc3ccccc3)CC2)s1)c1cc2ccccc2s1 [compound 218, N-{5-[(1-benzyl-4-piperidinyl)amino]-1,3,4-thiadiazol-2-yl}-1-benzothiophene-2-carboxamide] | 43.6 | – |
| NS(=O)(=O)c1ccc(CCNc2nnc(NC(=O)c3ccc4c(c3)C(=O)OC4=O)s2)cc1 [compound 15, N-(5-{[4-(aminosulfonyl)phenethyl]amino}-1,3,4-thiadiazol-2-yl)-1,3-dioxo-1,3-dihydro-2-benzofuran-5-carboxamide] | 98.8 | – |
| CCOc1ccc2ccccc2c1C(=O)Nc1nnc(NCc2ccc(Cl)c(Cl)c2)s1 [compound 207, N-{5-[(3,4-dichlorobenzyl)amino]-1,3,4-thiadiazol-2-yl}-2-ethoxy-1-naphthamide] | 44.7 | – |
| O=C(Nc1nnc(NCc2ccc(Cl)c(Cl)c2)s1)c1c(Cl)cccc1Cl [compound 73, 2,6-dichloro-N-{5-[(3,4-dichlorobenzyl)amino]-1,3,4-thiadiazol-2-yl}benzamide] | 69.1 | – |
| CCCCCCCCCCCNc1nnc(NC(=O)c2ccc(S(=O)(=O)F)cc2)s1 [compound 49, 4-({[5-(undecylamino)-1,3,4-thiadiazol-2-yl]amino}carbonyl)benzenesulfonyl fluoride] | – | 80.3 |
| CCOc1ccc2ccccc2c1C(=O)Nc1nnc(NC2CCc3ccccc32)s1 (stereo not shown) [compound 95, N-[5-(2,3-dihydro-1H-inden-1-ylamino)-1,3,4-thiadiazol-2-yl]-2-ethoxy-1-naphthamide] | 65.9 | – |
| O=C(Nc1nnc(NCc2ccc(F)cc2)s1)c1ccc2c(c1)C(=O)OC2=O [compound 7, N-{5-[(4-fluorobenzyl)amino]-1,3,4-thiadiazol-2-yl}-1,3-dioxo-1,3-dihydro-2-benzofuran-5-carboxamide] | 99.8 | – |
| CCCCCCCC/C=C/CCCCCCCC(=O)Nc1nnc(NC2CCN(C(=O)OCC)CC2)s1 [compound 91, ethyl 4-({5-[(E)-9-octadecenoylamino]-1,3,4-thiadiazol-2-yl}amino)tetrahydro-1(2H)-pyridinecarboxylate] | 66.1 | – |
| O=C(Nc1nnc(NCc2ccncc2)s1)c1c(Cl)cccc1Cl [compound 84, 2,6-dichloro-N-{5-[(4-pyridinylmethyl)amino]-1,3,4-thiadiazol-2-yl}benzamide] | 67.6 | – |
| N#Cc1ccc(C(=O)Nc2nnc(NCCCNC3CCCCC3)s2)cc1 [compound 127] | 58.5 | – |
| NS(=O)(=O)c1ccc(CNc2nnc(NC(=O)/C=C/c3ccccc3)s2)cc1 [compound 32, (E)-N-(5-{[4-(aminosulfonyl)benzyl]amino}-1,3,4-thiadiazol-2-yl)-3-phenyl-2-propenamide] | 90.6 | – |
| N#Cc1ccc(C(=O)Nc2nnc(NC3CCCCCC3)s2)cc1 [compound 103, 4-cyano-N-[5-(cycloheptylamino)-1,3,4-thiadiazol-2-yl]benzamide] | 64.9 | – |
| O=C(Nc1nnc(NCCCCc2ccccc2)s1)c1ccc(C(F)(F)F)cc1 [compound 138, N-{5-[(4-phenylbutyl)amino]-1,3,4-thiadiazol-2-yl}-4-(trifluoromethyl)benzamide] | 56.2 | – |
| O=C(Nc1nnc(NCCc2c[nH]c3ccccc23)s1)c1ccc([N+](=O)[O-])o1 [compound 47, N-(5-{[2-(1H-indol-3-yl)ethyl]amino}-1,3,4-thiadiazol-2-yl)-5-nitro-2-furamide] | 81.6 | – |
| O=C(Nc1nnc(NCCc2cccs2)s1)c1cc2ccccc2s1 [compound 234, N-(5-{[2-(2-thienyl)ethyl]amino}-1,3,4-thiadiazol-2-yl)-1-benzothiophene-2-carboxamide] | 42 | – |
| CCCCCCCC/C=C/CCCCCCCC(=O)Nc1nnc(NC2CCCc3ccccc32)s1 (stereo not shown) [compound 107, (E)-N-[5-(1,2,3,4-tetrahydro-1-naphthalenylamino)-1,3,4-thiadiazol-2-yl]-9-octadecenamide] | 63.8 | – |
| O=C(Nc1nnc(NCCc2ccccc2)s1)c1ccc(S(=O)(=O)F)cc1 [compound 472, 4-({[5-(phenethylamino)-1,3,4-thiadiazol-2-yl]amino}carbonyl)benzenesulfonyl fluoride] | – | 20.0 |
| CCCCCCCCCCCNc1nnc(NC(=O)/C=C/c2ccccc2Cl)s1 [compound 216, (E)-3-(2-chlorophenyl)-N-[5-(undecylamino)-1,3,4-thiadiazol-2-yl]-2-propenamide] | 43.9 | – |
